According to patent US6943253B2, “6-phenylpyrrolopyrimidinedione derivatives” (Almirall Prodesfarma S.A., priority 2000, dated 2005):

Biological target: T1, cyclic GMP specific phosphodiesterase (PDE 5) (Homo sapiens, UniProt O76074)
T1 construct: isolated from human platelet lysates by ion exchange chromatography using a Mono-Q column; from tissue; host or cells: human platelets (lysate, Mono-Q ion exchange fraction)
Assay: PDE 5 inhibitory activity, enzyme isolated from human platelet lysates
Type: biochemical
Conditions: PDE 5 from human platelet lysates; 0.25 mM [3H]-cyclic GMP as substrate; read-out: IC50 PDE5
Method: The cyclic GMP specific phosphodiesterase (PDE 5) was isolated from human platelet lysates by ion exchange chromatography using a Mono-Q column. The enzyme activity was determined using 0.25 mM [3H]-cyclic GMP as substrate. The purification of the enzyme and the assessment of the PDE 5 inhibitory activity of our compounds were performed essentially as described by R. W. Gristwood et al., Br. J. Pharmacol. 1992, 105:985-991.

SMILES | IC50 [nM]
CCCOc1ccc(S(=O)(=O)N2CCN(C)CC2)cc1-c1cc2c([nH]1)c(=O)n(C)c(=O)n2CCC [Example 12, 3-Methyl-6-[5-(4-methylpiperazine-1-sulphonyl)-2-propoxyphenyl]-1-propyl-1,5-dihydropyrrolo[3,2-d]pyrimidine-2,4-dione] | 14
CCCOc1ccc(S(=O)(=O)N2CCN(CC)CC2)cc1-c1cc2c([nH]1)c(=O)n(C)c(=O)n2CCC [Example 13, 6-[5-(4-Ethylpiperazine-1-sulphonyl)-2-propoxyphenyl]-3-methyl-1-propyl-1,5-dihydropyrrolo[3,2-d]pyrimidine-2,4-dione] | 8
CCCn1c(=O)n(C)c(=O)c2[nH]c(-c3cc(S(=O)(=O)N4CCN(CCCO)CC4)ccc3OCC)c(Br)c21 [Example 47, 7-Bromo-6-{2-ethoxy-5-[4-(3-hydroxypropyl)piperazine-1-sulfonyl]phenyl}-3-methyl-1-propyl-1,5-dihydropyrrolo[3,2-d]pyrimidine-2,4-dione] | 9.2
CCCOc1ccc(S(=O)(=O)N2CCN(CCO)CC2)cc1-c1[nH]c2c(=O)n(C)c(=O)n(CCC)c2c1Br [Example 55, 7-Bromo-6-{5-[4-(2-hydroxyethyl)piperazine-1-sulfonyl]-2-propoxyphenyl}-3-methyl-1-propyl-1,5-dihydropyrrolo[3,2-d]pyrimidine-2,4-dione] | 6.6

Molecules with a lower IC50, results first:

IC50 [nM] | SMILES
3.4 | CCCn1c(=O)n(C)c(=O)c2[nH]c(-c3cc(S(=O)(=O)N4CCN(C)CC4)ccc3OCC)c(Cl)c21 [Example 27, 7-Chloro-6-[2-ethoxy-5-(4-methylpiperazine-1-sulfonyl)phenyl]-3-methyl-1-propyl-1,5-dihydropyrrolo[3,2-d]pyrimidine-2,4-dione]
4.2 | CCCOc1ccc(S(=O)(=O)N2CCN(C)CC2)cc1-c1[nH]c2c(=O)n(C)c(=O)n(CCC)c2c1Cl [Example 33, 7-Chloro-3-methyl-6-[5-(4-methylpiperazine-1-sulfonyl)-2-propoxyphenyl]-1-propyl-1,5-dihydropyrrolo[3,2-d]pyrimidine-2,4-dione]
3.6 | CCCOc1ccc(S(=O)(=O)N2CCN(CC)CC2)cc1-c1[nH]c2c(=O)n(C)c(=O)n(CCC)c2c1Cl [Example 34, 7-Chloro-6-[5-(4-ethylpiperazine-1-sulfonyl)-2-propoxyphenyl]-3-methyl-1-propyl-1,5-dihydropyrrolo[3,2-d]pyrimidine-2,4-dione]
3.4 | CCCOc1ccc(S(=O)(=O)N2CCN(CCO)CC2)cc1-c1[nH]c2c(=O)n(C)c(=O)n(CCC)c2c1Cl [Example 35, 7-Chloro-6-{5-[4-(2-hydroxyethyl)piperazine-1-sulfonyl]-2-propoxyphenyl}-3-methyl-1-propyl-1,5-dihydropyrrolo[3,2-d]pyrimidine-2,4-dione]
4.5 | CCCOc1ccc(S(=O)(=O)N2CCN(C)CC2)cc1-c1[nH]c2c(=O)n(C)c(=O)n(CCC)c2c1Br [Example 50, 7-Bromo-3-methyl-6-[5-(4-methylpiperazine-1-sulfonyl)-2-propoxyphenyl]-1-propyl-1,5-dihydropyrrolo[3,2-d]pyrimidine-2,4-dione]
4 | CCCOc1ccc(S(=O)(=O)N2CCN(CCCO)CC2)cc1-c1[nH]c2c(=O)n(C)c(=O)n(CCC)c2c1Br [Example 57, 7-Bromo-6-{5-[4-(3-hydroxypropyl)piperazine-1-sulfonyl]-2-propoxyphenyl}-3-methyl-1-propyl-1,5-dihydropyrrolo[3,2-d]pyrimidine-2,4-dione]
